One experiment addresses T1, MDA-9/Syntenin: Src (Homo sapiens, UniProt O00560).
T1 construct: co-immunoprecipitation with anti-MDA-9
In words: Co-immunoprecipitation MDA-9/Syntenin: Src. The experiment is classed as cell-based. The conditions noted are these: C8161.9 and A-375 cells; co-IP after 12 hours treatment, fibronectin-coated plates. The protocol: FIG. 4A is an immunoblot of C8161.9 and A-375 cells treated for 12 hours with either DMSO vehicle or IVMT-Rx-3 at different doses (as indicated) and re-plated onto fibronectin-coated plates. After 30 minutes, cell lysates were immunoprecipitated and immunoblotted with the indicated antibodies.
Co-immunoprecipitation studies were performed as described previously using immunoprecipitation kits with Dynabeads® Protein G (Life Technologies) (7,8). Briefly, 30 min. after plating cells on fibronectin-coated plates, protein lysates were prepared. 200 μg of total cellular protein was incubated with anti-IgG or anti-MDA-9 overnight to facilitate binding. After subsequent washing and elution from beads, Western blotting was performed with specific antibodies.

Another experiment concerns MMP-2 and MMP-9. The experiment can be described thus: MMP-2 and MMP-9 protein by Western blotting. The experiment is classed as cell-based, human. The conditions noted are these: Western blot; A-375, C8161.9, 24 hours; FIG. 4B. The procedure: FIG. 4B is a Western blot of C8161.9 and A-375 cells treated with indicated doses of IVMT-Rx-3 for 24 hours. Cell lysates were subjected to Western blotting analysis to determine the expression levels of various signaling proteins (as shown) associated with MDA-9/Syntenin: Src interactions. Western blotting densitometry and relative intensity of protein bands were calculated using Image J software. The values are provided.
Western blotting was performed following a standard protocol as described previously (6,8,18,29). Antibodies used in this study were purchased from Cell Signaling Technology (Boston, MA): p-Src (Y416), total Src, matrix metalloproteinase-2 (MMP-2) and matrix metaloproteinase-9 (MMP-9), focal adhesion kinase (FAK), p IKKα/β (S176/180), total IKK, p P38 (T180/Y182) and total P38. MDA-9/Syntenin antibody was obtained from Abnova Inc. (Taiwan). β-actin (Sigma-Aldrich, St. Louis, MO) was used as an endogenous loading control. Fibronectin was purchased from EMD Millipore (Billerica, MA).
(In general: Immunoblotting shows a protein as a band on a membrane.)

Experiment [1] deals with IGFBP-2. The experiment can be described thus: IGFBP-2 ELISA in conditioned media. Format: cell-based, human. The conditions noted are these: 10, 25 or 50 μM, 24 hr. The protocol: FIG. 5C is a series of histograms showing the amount of IGFBP-2 secreted from A-375, C8161.9, TPF-19-219, TPF-19-235, and TPF-16-238 cells treated with varying concentrations of IVMT-Rx-3, as measured by ELISA.
IGFBP-2 levels in conditioned media were determined using an IGFBP-2 ELISA kit (R&D systems, USA) according to the manufacturer's instructions (9). Each sample was repeated three times, and represented graphically with GraphPad Prism software.
Insulin Growth Factor Binding Protein-2 (IGFBP-2) has been found in higher levels in the serum of individuals with diverse types of pathological conditions and is very germane in the context of angiogenesis, tumor promotion and chemoresistance (33). Since Src activation is critical for IGFBP-2 induced angiogenesis, a potential suppressive function of IVMT-Rx-3 on IGFBP-2 expression levels was investigated (9). Melanoma cells were treated with different doses (10, 25 or 50 μM) of IVMT-Rx-3 for 24 hr. and levels of IGFBP-2 in the media were determined using ELISA (FIG. 5C). […] Blocking MDA-9/Syntenin expression inhibits the secretion of cytokines/growth factors in breast cancer resulting in the conversion of an immunosuppressive to immunostimulatory microenvironment (23). Accordingly, the level of specific melanoma metastasis-associated cytokines, e.g., IL-6, IL-10, IL-16, following treatment with IVMT-Rx-3 was analyzed. […]
(An ELISA detects its analyte on a solid surface through an enzyme-linked reagent.)

In a further experiment the test system is B16 lung metastases. In words: B16 lung metastasis model in C57BL/6 mice. Format: in vivo, mouse. The settings on record: 30 mg/kg I.P., 3× per week, 6 injections. The procedure: FIG. 6A is a series of images of B16 lung metastases in C57BL/6 mice treated with DMSO vehicle, PDZ1i, or IVMT-Rx-3 (intraperitoneal injection of 30 mg/kg, 3×/week, 6 injections total). 1×10^5 B16 cells were injected intravenously in C57BL/6 mice (n=7, per group) prior to treatment.
FIG. 6B is a series of histograms showing the number of nodules/lung, T cell populations (CD8^+IFN-γ^+) and myeloid-derived suppressor cells (MDSCs) in the lungs of the treatment groups described in FIG. 6A, as measured by flow cytometry. *: Statistical significance (p<0.05);**: Statistical significance (p<0.01);***: Statistical significance (p<0.001). ****: Statistical significance (p<0.0001).
All animal experiments were performed according to guidelines established by VCU IACUC. Immune competent mice (6-week-old male C57BL/6) were used in this study for determining the anti-metastatic efficiency of IVMT-Rx-3. Mice were purchased from Jackson Laboratories and after one-week in barrier facilities, experiments were performed. To establish lung metastases, murine B16 (1×10^5 cells/0.1 ml PBS) were injected via tail vein in C57BL/6 mice (18). Test chemical (IVMT-Rx-3) was administrated at 30 mg/kg body weight three times a week I.P. for the first two weeks (six injections, C57BL/6 study). DMSO was used as control. Anti-PD-L1 antibody and control antibodies for therapeutic injections were purchased from Bio X Cell (West Lebanon, NH, USA).
1×10^5 B16 cells were injected intravenously in C57BL/6 mice and treated with IVMT-Rx-3 (intraperitoneal injection 30 mg/kg, 3× in a week, 6 injections in total). 100 μg of Anti-PD-L1 antibody was injected through the I/P (intraperitoneal) route (3 times a week, over a 2-week period). A set of 20 animals were first injected with B16 cells (1×10^5 cells/mouse) and randomly divided into four groups (n=5) for survival studies. As stated in the above-mentioned lung metastasis protocol, mice received 6 doses of control vehicle or IVMT-Rx-3 either alone or in combination with anti-PD-L1 over the first two weeks. […]

Experiment [2] has as its system IGFBP-2. In words: IGFBP-2 in blood plasma of B16-injected mice. The settings on record: 30 mg/kg I.P., 6 injections. The experiment is classed as in vivo, mouse. An excerpt:
FIG. 6C is a histogram showing the IGFBP-2 expression measured in blood plasma from animals (n=7) in the treatment groups described in FIG. 6A. ****: Statistical significance (p<0.0001).

Residues, ends and D or L forms follow the SMILES beside them.

From patent US20260345798A1, “COMPOUNDS AND METHODS OF USE THEREOF” (Virginia Commonwealth University, priority 2023, published 2026) come the findings set out here.

T1 sequence (O00560 whole entry): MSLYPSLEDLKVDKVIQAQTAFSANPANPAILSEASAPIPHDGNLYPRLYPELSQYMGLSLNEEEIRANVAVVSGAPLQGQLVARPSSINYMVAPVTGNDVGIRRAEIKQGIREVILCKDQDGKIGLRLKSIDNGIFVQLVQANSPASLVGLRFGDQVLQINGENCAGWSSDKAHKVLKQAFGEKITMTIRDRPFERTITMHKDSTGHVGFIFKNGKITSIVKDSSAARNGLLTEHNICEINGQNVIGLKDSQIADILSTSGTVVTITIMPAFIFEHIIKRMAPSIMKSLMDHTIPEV

On to `Cc1cc(NC(=O)c2nc3[nH]c4c(c(=O)n3n2)CCC4)c(C)cc1NC(=O)CCOCCC(=O)N[C@H](C(=O)N[C@@H](CC(N)=O)C(=O)N[C@@H](CCC(=O)O)C(=O)N[C@@H](Cc1ccc(O)cc1)C(=O)N[C@@H](Cc1ccc(O)cc1)C(=O)N[C@H](C(=O)O)C(C)C)[C@@H](C)O` [IVMT-Rx-3] (HELM PEPTIDE1{[Cc1cc(NC(=O)c2nc3[nH]c4c(c(=O)n3n2)CCC4)c(C)cc1NC(=O)CCOCCC(=O)[*:2]].T.N.E.Y.Y.V}$$$$V2.0), for which the “disruption of MDA-9/Syntenin: Src interactions” value on MDA-9/Syntenin: Src is reported as “disrupted MDA-9/Syntenin: Src interactions”. In addition, in the experiment with MMP-2 and MMP-9, the “MMP-2 and MMP-9 expression (translational level)” value is “down regulation”. The “IGFBP-2 in tumor-derived media” value with IGFBP-2 [1] was “dose-dependent downregulation”. Besides, in the experiment with B16 lung metastases, the “efficacy against lung metastases compared with PDZ1i” value was “significantly higher compared with PDZ1i”. The “lung metastasis (combination experiment)” value in the experiment on B16 lung metastases (single agent) is listed as “markedly reduced lung metastasis”. The “number of lung nodules” value in the experiment with B16 lung metastases (vs vehicle) is “significantly reduced the number of lung nodules”. The “IGFBP-2 levels in blood plasma” value with IGFBP-2 [2] is reported as “down regulation”.
